# Tests used:
# EGFR T790M/L858R = biological target: T1, EGFR T790M/L858R (Homo sapiens, UniProt P00533, L858R/T790M); experiment: Mutant EGFR T790M/L858R activity inhibition assay (Caliper mobility shift); type: biochemical; conditions: read-out: enzyme activity inhibition (IC50) EGFR T790M/L858R
# T1 construct: purchased Invitrogen PR8911A
# Procedure: The assay procedure is as follows. […] 5 μl of the compound dissolved in 10% DMSO at a concentration of 5-fold of the final reaction concentration was added to a 384 well plate. 5 μl of 10% DMSO was used in a no-compound control well, while 5 μl of a kinase buffer was used in a no-enzyme activity control well. […] The conversion rate was read on Caliper EZ Reader II (Caliper Life Sciences). The conversion rate was then converted to inhibitory rate.
# As used herein, “max” refers to the conversion rate of the DMSO no-compound control well, and “min” refers to the conversion rate of the no-enzyme activity control well. A curve was obtained by plotting the inhibitory rate as a function of the compound concentration. The XLFit excel add-in version 4.3.1 software was used to fit the curve and calculate the IC50. Inhibitory rate %=(max−conversion rate)/(max−min)×100.
# H1975 = experiment: Inhibition assay on tumor cell proliferation (CellTiter-Glo), H1975; type: cell-based, Human; conditions: H1975 (L858R and T790M EGFR double mutation), 72 hours, 10% bovine serum
# LOVO = experiment: Inhibition assay on tumor cell proliferation (CellTiter-Glo), LOVO; type: cell-based, Human; conditions: LOVO (wild-type EGFR), 72 hours, 10% bovine serum
# Procedure: (§1) By using a CellTiter-Glo luminescence cell viability test kit (Promega, # G7572), the content of adenosine triphosphate (ATP) was determined to assess the cell viability.
# (§2) Human colon cancer cell line LOVO and human non-small-cell lung cancer H358 express wild-type EGFR. Human non-small-cell lung cancer cell line HCC827 carries deletion mutation in exon 19 (ex19del). Those cell lines are purchased from Shanghai Fudan IBS Cell Resource Center and American Tissue Culture Collection (ATCC).
# (§3) The assay procedure is as follows. The cells in a cell culture plate were digested with a pancreatic enzyme, re-suspended in a DPBS culture medium, and had the cell density counted by Scepter automated cytometer (Millipore # PHCC00000). The cells were diluted to a solution of 44,000 cells per ml. The cell solution with adjusted density was added to the cell assay plate at 90 microliters per well. The plate was placed in an incubator with 5% CO2 at 37° C. for 24 hours of incubation, and then added with different concentrations of subject compounds. The cells were incubated for 72 hours with the compounds in presence of 10% bovine serum. The content of ATP was determined by a CellTiter-Glo® Luminescent Cell Viability Assay kit (see the manufacturer's instruction for details) to evaluate cell-growth inhibition.
# (§4) Briefly, 30 μl of CellTiter-Glo® reagent was added to each well, and then shaken for 10 minutes to induce cell lysis. The fluorescent signal was detected and recorded by Fluoroskan Ascent FL (Thermo). The max signal value was obtained from the cells treated by dimethyl sulfoxide for 72 hours. The min signal value was obtained from the medium alone (the number of the cells was 0). Inhibitory rate %=(max signal value−compound signal value)/(max signal value−min signal value)×100. The data was processed by GraphPad Prism V5.0 software (GraphPad Software, San Diego, Calif.). Sigmoidal dose-response curve fitting was performed to calculate the IC50 value.
# H358 = experiment: Inhibition assay on tumor cell proliferation (CellTiter-Glo), H358; type: cell-based, Human; conditions: H358 (wild-type EGFR), 72 hours, 10% bovine serum
# Procedure: as §1, §2, §3, §4
# [1] = Pharmacokinetics in rats after oral administration; type: in vivo, SD rats; conditions: for AUC(0-inf) / Cmax / Tmax / half-life / AUC(0-t): male, SD, rat, 20 mg/kg, plasma; for AUC(0-t): read-out: AUC0-24
# Procedure: Male SD rats weighing 250-300 g, or male beagles weighing 9-10 kg, were fasted overnight before the experiment. The object compounds were dissolved in 30% sulfobutylated beta-cyclodextrin (SBE-β-CD), and orally administrated to the rats at a dose of 20 mg/kg or to the beagles at a dose of 5 mg/kg. Blood samples were taken at 15 minutes, 30 minutes, 1 hour, 2 hours, 3 hours, 4 hours, 6 hours, 8 hours and 24 hours after administration. 0.3 ml of blood was collected at every time point, placed in a centrifuge tube containing K2-EDTA (ethylenediamine tetraacetic acid dipotassium) and centrifuged (2,000 g, 10 minutes, 4° C.) to collect plasma, which was then stored in an ultra cold storage freezer at −80° C. 50 μL of plasma sample was mixed with 5 μL of internal standard (IS), and then extracted with ethyl acetate. After vacuum drying, the residue was re-dissolved in acetonitrile. The sample was filtered and injected into LC-MS/MS for analysis.
# T1 sequence (P00533 25-1210 T790M/L858R): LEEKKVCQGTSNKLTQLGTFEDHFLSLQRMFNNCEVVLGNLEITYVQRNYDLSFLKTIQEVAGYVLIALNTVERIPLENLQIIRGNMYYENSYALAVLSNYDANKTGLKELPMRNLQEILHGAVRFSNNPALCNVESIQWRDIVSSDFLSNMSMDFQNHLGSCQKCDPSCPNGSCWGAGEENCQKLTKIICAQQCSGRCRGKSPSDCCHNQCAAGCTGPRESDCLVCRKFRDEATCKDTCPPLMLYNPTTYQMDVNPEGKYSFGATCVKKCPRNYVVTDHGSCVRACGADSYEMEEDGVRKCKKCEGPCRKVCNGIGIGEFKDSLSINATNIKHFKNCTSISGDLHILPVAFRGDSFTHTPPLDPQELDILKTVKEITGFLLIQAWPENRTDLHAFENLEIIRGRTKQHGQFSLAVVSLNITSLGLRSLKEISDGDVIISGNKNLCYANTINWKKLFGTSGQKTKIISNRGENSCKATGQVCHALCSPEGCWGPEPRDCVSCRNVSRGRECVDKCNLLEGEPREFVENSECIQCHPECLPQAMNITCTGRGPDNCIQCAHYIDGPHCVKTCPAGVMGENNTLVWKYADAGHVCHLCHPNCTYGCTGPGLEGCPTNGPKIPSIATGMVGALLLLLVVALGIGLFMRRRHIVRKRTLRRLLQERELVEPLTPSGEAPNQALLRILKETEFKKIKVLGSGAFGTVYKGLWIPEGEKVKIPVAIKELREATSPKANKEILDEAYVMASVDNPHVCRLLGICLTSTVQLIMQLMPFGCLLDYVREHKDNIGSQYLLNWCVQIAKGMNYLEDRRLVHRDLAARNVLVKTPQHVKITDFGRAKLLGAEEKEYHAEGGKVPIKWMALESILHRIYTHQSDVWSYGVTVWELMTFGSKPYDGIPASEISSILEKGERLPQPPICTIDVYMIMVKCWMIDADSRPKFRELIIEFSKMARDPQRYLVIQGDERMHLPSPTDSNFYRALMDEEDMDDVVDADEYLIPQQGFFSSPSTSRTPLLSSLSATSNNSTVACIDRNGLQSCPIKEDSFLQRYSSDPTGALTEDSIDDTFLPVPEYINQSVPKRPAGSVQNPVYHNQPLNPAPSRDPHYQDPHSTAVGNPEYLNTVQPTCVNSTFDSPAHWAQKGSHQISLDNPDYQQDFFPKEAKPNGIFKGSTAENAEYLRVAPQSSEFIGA
SMILES,IC50 (EGFR T790M/L858R) [nM],"IC50 (H1975; Homo sapiens, NCI-H1975) [nM]",IC50 (LOVO; Homo sapiens) [nM],"IC50 (H358; Homo sapiens, NCI-H358) [nM]",melting point [°C],IC50 (H1975) [nM],IC50 (LOVO) [nM],IC50 (H358) [nM],absorption / blood exposure after oral administration (in words) [1],AUC(0-inf) [1] [ng·h/mL],Cmax [1] [ng/mL],Tmax [1] [h],half-life [1] [h],AUC(0-t) [1] [ng·h/mL]
"C=CC(=O)Nc1cc(Nc2ncc(C(F)(F)F)c(-n3ccc4ccccc43)n2)c(OC)cc1N(C)CCN(C)C [Compound 5, N-(5-((4-(1H-indol-1-yl)-5-(trifluoromethyl)pyrimidin-2-yl)amino)-2-((2-(dimethylamino)ethyl)(methyl)amino)-4-methoxyphenyl)acrylamide]",1 to 10,< 10,> 1000,100 to 1000,161 to 162,,,,,,,,,
"C=CC(=O)Nc1cc(Nc2ncc(C)c(-n3ccc4ccccc43)n2)c(OC)cc1N(C)CCN(C)C [Compound 8, N-(5-((4-(1H-indol-1-yl)-5-methylpyrimidin-2-yl)amino)-2-((2-(dimethylamino)ethyl)(methyl)amino)-4-methoxyphenyl)acrylamide]",< 1,< 10,> 1000,100 to 1000,,,,,,,,,,
"C=CC(=O)Nc1cc(Nc2nccc(-n3ccc4cc([N+](=O)[O-])ccc43)n2)c(OC)cc1N(C)CCN(C)C [Compound 34, N-{2-[(2-Dimethylamino-ethyl)-methyl-amino]-4-methoxy-5-[4-(5-nitro-indol-1-yl)-pyrimidin-2-ylamino]-phenyl}-acryl amide]",1 to 10,< 10,> 1000,100 to 1000,,,,,,,,,,
"C=CC(=O)Nc1cc(Nc2nccc(-n3c(=O)n(C)c4cc(OC)ccc43)n2)c(OC)cc1N(C)CCN(C)C [Compound 53, N-(2-((2-(dimethylamino)ethyl) (methyl)amino)-4-methoxy-5-((4-(5-methoxy-3-methyl-2-oxo-2,3-dihydro-1H-benzo[d]imidazol-1-yl)pyrimidin-2-yl)amino)phenyl)acryl amide]",< 1,,,,,10 to 50,> 1000,50 to 100,,,,,,
"C=CC(=O)Nc1cc(Nc2nccc(-n3c(=O)n(CC=C(C)C)c4ccccc43)n2)c(OC)cc1N(C)CCN(C)C [Compound 62, N-(2-((2-(dimethylamino)ethyl)(methyl)amino)-4-methoxy-5-(4-(3-(3-methylbut-2-enyl)-2-oxo-2,3-dihydro-1H-benzo[d]imidazol-1-yl)pyrimidin-2-ylamino)phenyl)acrylamide]",< 1,< 10,,100 to 1000,187 to 188,,,,"well absorbed, with high blood exposure",920,84,3.7,6.8,834
"COc1cc(N(C)CCN(C)C)c(NC(=O)/C=C/CN2CCCCC2)cc1Nc1nccc(-n2ccc3ccccc32)n1 [Compound 70, (E)-N-(5-(4-(1H-indol-1-yl)pyrimidin-2-ylamino)-2-((2-(dimethylamino)ethyl)(methyl)amino)-4-methoxyphenyl)-4-(piperidin-1-yl)but-2-enamide]",1 to 10,100 to 1000,100 to 1000,100 to 1000,,,,,,,,,,
"C=CC(=O)Nc1cc(Nc2nccc(-n3ccc4ccccc43)n2)c(OC)cc1N1CC(N(C)C)C1 [Compound 77, N-(5-(4-(1H-indol-1-yl)pyrimidin-2-ylamino)-2-(3-(dimethylamino)azetidin-1-yl)-4-methoxyphenyl)acrylamide]",1 to 10,10 to 50,> 1000,,81 to 83,,,,,,,,,
"C=CC(=O)Nc1cc(Nc2nccc(-n3ccc4nc(Cl)ccc43)n2)c(OC)cc1N(C)CCN(C)C [Compound 124, N-(5-((4-(5-chloro-1H-pyrrolo[3,2-b]pyridin-1-yl)pyrimidin-2-yl)amino)-2-((2-(dimethylamino)ethyl)(methyl)amino)-4-methoxyphenyl)acrylamide]",< 1,< 10,,100 to 1000,127 to 129,,,,"well absorbed, with high blood exposure",1790,327,1.7,6.1,1700
"C=CC(=O)Nc1cc(Nc2nccc(-n3c(=O)n(C(C)C)c4ccccc43)n2)c(C)cc1N(C)CCN(C)C [Compound 127, N-(2-((2-(dimethylamino)ethyl)(methyl)amino)-5-((4-(3-isopropyl-2-oxo-2,3-dihydro-1H-benzo[d]imidazol-1-yl)pyrimidin-2-yl)amino)-4-methylphenyl)acrylamide]",< 1,< 10,,> 1000,179 to 181,,,,,,,,,
"C=CC(=O)Nc1cc(Nc2nccc(-n3c(=O)n(C(C)C)c4ccccc43)n2)ccc1N(C)CCN(C)C [Compound 128, N-(2-((2-(dimethylamino)ethyl)(methyl)amino)-5-((4-(3-isopropyl-2-oxo-2,3-dihydro-1H-benzo[d]imidazol-1-yl)pyrimidin-2-yl)amino)phenyl)acrylamide]",< 1,< 10,,100 to 1000,85 to 90,,,,,,,,,
"C=CC(=O)Nc1cc(Nc2ncc(OC)c(-n3c(=O)n(C(C)C)c4ccccc43)n2)c(OC)cc1N(C)CCN(C)C [Compound 133, N-(2-((2-(dimethylamino)ethyl) (methyl)amino)-5-((4-(3-isopropyl-2-oxo-2,3-dihydro-1H-benzo[d]imidazol-1-yl)-5-methoxypyrimidin-2-yl)amino)-4-methoxyphenyl)acrylamide]",1 to 10,< 10,,> 1000,92 to 95,,,,,,,,,
"C=CC(=O)Nc1cc(Nc2ncc(N(C)C)c(-n3c(=O)n(C(C)C)c4ccccc43)n2)c(OC)cc1N(C)CCN(C)C [Compound 135, N-(5-((5-(dimethylamino)-4-(3-isopropyl-2-oxo-2,3-dihydro-1H-benzo[d]imidazol-1-yl)pyrimidin-2-yl)amino)-2-((2-(dimethylamino)ethyl)(methyl)amino)-4-methoxyphenyl)acrylamide]",1 to 10,10 to 50,,> 1000,114.6 to 116.2,,,,,,,,,
"C=CC(=O)Nc1cc(Nc2nccc(-n3c(=O)n(C(C)C)c4cc(OC)ccc43)n2)c(OC)cc1N(C)CCN(C)C [Compound 138, N-(2-((2-(dimethylamino)ethyl)(methyl)amino)-5-((4-(3-isopropyl-5-methoxy-2-oxo-2,3-dihydro-1H-benzo[d]imidazol-1-yl)pyrimidin-2-yl)amino)-4-methoxyphenyl)acrylamide]",1 to 10,< 10,,100 to 1000,95 to 98,,,,,,,,,
"C=CC(=O)Nc1cc(Nc2nccc(-n3c(=O)n(C(C)C)c4cc(O)ccc43)n2)c(OC)cc1N(C)CCN(C)C [Compound 139, N-(2-((2-(dimethylamino)ethyl)(methyl)amino)-5-((4-(5-hydroxy-3-isopropyl-2-oxo-2,3-dihydro-1H-benzo[d]imidazol-1-yl)pyrimidin-2-yl)amino)-4-methoxyphenyl)acrylamide]",< 1,< 10,,100 to 1000,115 to 117,,,,,,,,,

# Source: patent US11267802B2 (BEBETTER MED INC., priority 2015, dated 2022)
